Experimental data taken from US7160894B2, “Tricyclic compound” (Asahi Kasei Pharma Corporation, priority 2003, dated 2007).

Tests used:
[1] = system: ovalbumin-induced constriction of respiratory tract; test: Respiratory tract constriction suppressing action, intravenous administration (Test Example 3); type: in vivo, Hartley guinea pigs; settings: ovalbumin-immunized guinea pigs, administered from cannula in hind leg vein, measured for 15 minutes
Description: Four-week old Hartley guinea pigs (male) were immunized by intraperitoneal administration of ovalbumin (Sigma, Grade V) in amounts of 1 mg for each animal on the day on which the experiment was started, 3 mg for each animal after 2 days, and 10 mg for each animal after 4 days. Twelve to fourteen days after the final immunization, the ovalbumin-immunized guinea pigs were anesthetized by intraperitoneal administration of about 40 mg/kg of pentobarbital (Somnopentyl), and the tracheas were taken out. Subsequently, a cannula (SP-110, Natsume) was inserted into each trachea, and one end of the cannula was connected to an artificial respirator (Model-b83, Harvard). The aeration conditions were set at 6 ml per kilogram and 60 times per 1 minute. Further, a cannula for medicament administration (JMS wing needle 23G 3/4) was inserted into a hind leg vein. Myoblock (Organon Technica) was administered in an amount of 0.5 mg/kg from the cannula inserted into the hind leg vein to stop the spontaneous breathing, and after 2 or 3 minutes, 0.3 mg/kg of ovalbumin was administered to induce constriction of respiratory tract. The increase of airway resistance value 2 minutes after the induction (measurement apparatuses: pressure transducer TR-603T, respiratory amplifier AR-601G, and recorder RTA-3100, Nihon Kohden Corp.) was confirmed to be above 80 cm H2O or higher, and then, a solution of a test medicament was administered from the cannula inserted into the hind leg vein, and the airway resistance value was continuously measured for 15 minutes after the administration to determine the effect.

[2] = system: thoracic aorta constricted with phenylephrine; test: Vasoconstriction inhibitory action (Test Example 2); design: species or system Rats (Wistar); settings: test compound 1 μM; rat thoracic aorta constricted with phenylephrine 1 μM
From the text: Rats (Wistar, 11-week old) were bleeded to death and laparotomized to take out the thoracic aorta. That aorta was cut into a ring of a length of about 3 mm in a conventional manner (Asano, T., et al., J. Pharmacol. Exp. Ther., 241, pp. 1033–1040 (1987)) and hung in 10-ml organ bath filled with Krebs-Hensright nutrient solution bubbled with a mixed gas of 95% O2 and 5% CO2. One end of the blood vessel was connected to an isometric transducer (FD Pickup TB-912T, Nihon Kohden) and applied with 2.5 g of resting tension, and constriction and relaxation reactions of the aorta were recorded.
The aorta was constricted with phenylephrine (1 μM, Sigma) and then added with a test compound (1 μM), and the vasoconstriction inhibitory action thereof was observed. The vasoconstriction inhibitory actions of the test compounds were calculated as relaxation ratios, which were based on the vasoconstriction with phenylephrine observed immediately before the addition of the test compounds taken as 100%.

[3] = system: lipopolysaccharide-induced pulmonary inflammation; test: Pulmonary inflammation suppressing action, LPS-induced (Test Example 8); type: in vivo, BALB/c female mice; settings: mice, LPS inhalation, test compound by inhalation over 10 minutes, 3 hours after administration
From the text: According to Gonzales de Moraes, V L., et al., Br. J. Pharmacol., 123, pp. 631–6, 1998, suppressing action on pulmonary inflammation was studied. BALB/c female mice (7-week old) were used for the test, as the compound administration group and positive control group, each consisting of 7 mice, as well as the negative control group consisting of 5 mice. For induction of inflammation, a 0.03% physiological saline solution of a lipopolysaccharide (LPS, a mixture derived from Escherichia coli O55 and B5 strains, Sigma) was used. A test compound was dissolved in physiological saline to prepare solutions of various concentrations. The test animals were first inhaled with the aforementioned lipopolysaccharide solution for 10 minutes by using a pressurization type nebulizer (PARI-IS2) to induce inflammation. Then, 1 minute after the completion of the inhalation of the lipopolysaccharide solution, the animals were administered with a solution of test compound at various concentrations over 10 minutes by inhalation using the aforementioned nebulizer. The mice of the positive control group were administered with the same volume of physiological saline instead of the test compound solution over 10 minutes by inhalation. Three hours after the administration of the test compound, pulmonary cavities of the test animals were washed with physiological saline, and the total infiltrated leucocyte (WBC) number was counted.

[4] = system: cerebral hippocampal neurons; test: Neurite outgrowth action (Test Example 5); type: cell-based, Sprague-Dawley rats; settings: rat hippocampal neurons, 24 hours after addition
Description: From 18 day-old Sprague-Dawley rats, cerebral hippocampal neurons were prepared according to the method of Neuman et al. (Neuman, H. R. et al., J. Neurosci., 22, pp. 854–862, 2002). The prepared neurons were cultured for 24 hours according to the method of Tanaka et al. (Tanaka, H. et al., J. Cell Biol., 158 (2), pp. 321–329, 2002), then the medium was exchanged with fresh medium, and test medicaments of various concentrations or equivalent amounts of vehicle were added. Twenty-four hours after the addition of the medicaments, neurite length of each neuron was measured for the medicament-added group and the no-addition group, and compared. The neurite length was evaluated according to the method of Neuman et al. (Neuman, H. R. et al., J. Neurosci., 22, pp. 854–862, 2002).

[5] = system: ovalbumin-induced constriction of respiratory tract; test: Respiratory tract constriction suppressing action, administration by inhalation (Test Example 3); type: in vivo, Hartley guinea pigs; settings: ovalbumin-immunized guinea pigs, 2 ml solution by inhalation over 5 minutes
Description: Four-week old Hartley guinea pigs (male) were immunized by intraperitoneal administration of ovalbumin (Sigma, Grade V) in amounts of 1 mg for each animal on the day on which the experiment was started, 3 mg for each animal after 2 days, and 10 mg for each animal after 4 days. Further, the respiratory tract constriction suppression action of the test compounds was also evaluated by inhalation. Twelve to fourteen days after the final sensitization, 10 mg/kg of pyrilamine (Sigma), 5 mg/kg of indomethacin (Wako), or 0.1 mg/kg of propranolol (Sigma) was intraperitoneally administered. Then, 30 minutes after the administration, a 0.1% ovalbumin aqueous solution was inhaled by using a pressurization type nebulizer (PARI-IS2) to induce constriction of the respiratory tract. Ten minutes after the induction, 2 ml of a solution of a test compound prepared at various concentrations was filled in the aforementioned nebulizer, and administered by inhalation over 5 minutes. After the administration of pyrilamine and other drugs, airway resistance value was continuously measured to determine effectiveness.

intraocular pressure = test: Intraocular pressure reducing action (Test Example 4); type: in vivo, Japanese white rabbit; settings: rabbit, 50 μl of aqueous solution dropped to the left eye
[6] = system: myosin regulatory light chain; settings: mesenteric artery, iris smooth muscle, astrocyte; cited from earlier work

Structure (SMILES)	improvement of constriction of respiratory tract (airway resistance value) [1]	vasoconstriction inhibitory action (relaxation ratio) [2]	pulmonary inflammation, total infiltrated leucocyte (WBC) number [3]	neurite outgrowth (neurite length) [4]	improvement of constriction of respiratory tract (airway resistance value) [5]	intraocular pressure reducing action (intraocular pressure)	inhibition of phosphorylation of the myosin regulatory light chain [6]
Cl.O=C(O)CN1CCC(N2CCc3cncc4cccc2c34)CC1 [Example 17]	significantly improved the constriction of respiratory tract	significant vasoconstriction inhibitory action	significantly improved the pathological condition	significant neurite outgrowth axis extension	significantly improved the constriction of respiratory tract		
Cl.NC(=O)CN1CCC(N2CCc3cncc4cccc2c34)CC1 [Example 20]	significantly improved the constriction of respiratory tract	significant vasoconstriction inhibitory action	significantly improved the pathological condition	significant neurite outgrowth axis extension	significantly improved the constriction of respiratory tract	significant intraocular pressure reducing action	
Cl.NCCN[C@H]1CC[C@H](N2CCc3cncc4cccc2c34)CC1 [Example 24]	significantly improved the constriction of respiratory tract	significant vasoconstriction inhibitory action	significantly improved the pathological condition	significant neurite outgrowth axis extension	significantly improved the constriction of respiratory tract		
CC1CNCCN1S(=O)(=O)c1cccc2cnccc12 (centres unmarked) [Example H-7, 1-(5-isoquinolinesulfonyl)-2-methylpiperazine]							inhibits phosphorylation of the myosin regulatory light chain
